Assay results published in patent US20260139007A1, “EPHA4 ANTAGONISTS AND USES THEREOF” (SANFORD BURNHAM PREBYS MEDICAL DISCOVERY INSTITUTE, priority 2023, published 2026).
Where “and” joins values, the source holds several entries; their conditions need not be identical. Equal entries are not always repeated. Where two headings read alike, the source gives them in different places. Bridge positions count the residues as written; N and C are the ends. Square brackets hold non-standard residues; d marks the D form. Peptide text beside a SMILES is read from it. * marks the point of attachment. Octanoyl = CCCCCCCC(=O)*; βAla = NCCC(=O)O

Experiments:
EphA4 Fc [1] = experiment: ELISA measuring inhibition of ephrin-A5 AP binding to immobilized EphA4 Fc; design: species or system human or mouse
[2] = In vivo half-life: active compound remaining in mouse blood, deduced from apparent IC50 of plasma in the EphA4-ephrinA5 ELISA; settings: mouse; for blood concentration: 0.8 mg/mouse
Description: To examine the persistence of compounds in the blood circulation, an approach was devised to determine the concentration of compound in mouse blood by taking advantage of the ELISA measuring inhibition of EphA4-ephrinA5 interaction.
Lipidated compounds dissolved in DMSO were diluted in […] PBS (to a 5% final DMSO concentration) or in […] PBS supplemented with 20 or 40 mg/mL BSA or 6.5 mM methyl-β-cyclodextrin for intravenous or intraperitoneal injection. Neutral pH of the compound solution was verified before injection. PEGylated compounds were dissolved in […] PBS before intraperitoneal injection. Peptides were sterile filtered before administration. Blood from each mouse was collected at 3 different time points after compound injection, the first 2 times by retro-orbital bleeding and the third time by terminal cardiac bleeding under deep anesthesia. Red blood cells were removed by centrifugation from blood treated with heparin and the resulting plasma was frozen in aliquots.
For each time point, a dose-response curves by measuring inhibition of EphA4-ephrinA5 binding at different plasma dilutions was obtained.

EphA4 Fc [3] = experiment: ELISA inhibition of ephrin-A5 AP binding to EphA4 Fc in the presence of HSA, BSA or methyl-β-cyclodextrin; settings: for IC50: read-out: IC50 ± SE (n) by ELISA with HSA or BSA; for effect of HSA on potency: presence vs absence of 40 mg/mL HSA, tested in parallel
Description: To determine whether albumin binding to the lipidated compounds affects their ability to bind EphA4, the effects of delipidated human serum albumin (HSA) on the inhibitory potency of some of the compounds were examined.

[4] = Solubility of lipidated compounds; assay type: physicochemical
EphA4 = biological target: T1, EphA4 (Homo sapiens, UniProt P54764); experiment: EphA4 Y596 phosphorylation (activation) in cells stimulated with ephrinA5-Fc; assay type: cell-based; settings: EphA4 tyrosine phosphorylation in cells stimulated with ephrin-A5
T1 construct: expressed in transfected cells; host or cells: HEK-EphA4 cells (immortalized cells stably transfected)
T1 sequence (P54764 20-986, species assumed): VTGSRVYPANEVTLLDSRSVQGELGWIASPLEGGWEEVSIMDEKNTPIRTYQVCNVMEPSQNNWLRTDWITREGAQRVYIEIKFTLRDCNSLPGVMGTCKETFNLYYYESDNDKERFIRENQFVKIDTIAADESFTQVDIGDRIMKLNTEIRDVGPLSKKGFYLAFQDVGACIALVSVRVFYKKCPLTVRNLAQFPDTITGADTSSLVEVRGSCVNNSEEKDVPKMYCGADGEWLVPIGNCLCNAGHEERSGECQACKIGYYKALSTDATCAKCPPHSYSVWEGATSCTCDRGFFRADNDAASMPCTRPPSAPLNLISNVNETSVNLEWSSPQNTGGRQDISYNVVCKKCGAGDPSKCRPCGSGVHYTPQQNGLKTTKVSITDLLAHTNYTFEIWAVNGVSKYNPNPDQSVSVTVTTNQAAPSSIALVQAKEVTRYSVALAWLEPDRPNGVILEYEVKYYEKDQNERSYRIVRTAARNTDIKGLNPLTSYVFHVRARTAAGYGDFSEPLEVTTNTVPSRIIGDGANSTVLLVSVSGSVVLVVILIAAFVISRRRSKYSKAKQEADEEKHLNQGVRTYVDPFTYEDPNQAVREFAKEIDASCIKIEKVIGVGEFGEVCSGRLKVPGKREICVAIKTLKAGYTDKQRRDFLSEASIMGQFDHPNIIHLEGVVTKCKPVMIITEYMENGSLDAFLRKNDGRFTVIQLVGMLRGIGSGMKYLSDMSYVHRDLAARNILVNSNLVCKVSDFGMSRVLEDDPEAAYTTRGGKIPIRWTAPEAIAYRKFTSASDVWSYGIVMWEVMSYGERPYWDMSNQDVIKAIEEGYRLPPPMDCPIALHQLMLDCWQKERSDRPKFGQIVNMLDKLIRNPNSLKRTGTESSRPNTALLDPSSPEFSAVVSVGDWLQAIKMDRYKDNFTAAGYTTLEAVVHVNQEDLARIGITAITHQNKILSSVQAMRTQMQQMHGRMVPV
Description: Immortalized cells stably transfected to express FLAG-tagged EphA4 were cultured at 37° C. in Dulbecco's Modified Eagle Medium (DMEM; #10-013-CV, Corning/Thermo Fisher Scientific) containing 10% fetal bovine serum (FBS) with 1% antibiotic-antimycotic solution (#30-004-Cl, Corning). To assess inhibition of EphA4 activation by compounds in cells, the cells were plated in 48-well plates.
For ELISAs, high binding capacity polystyrene 96-well plates were coated overnight at 4° C. with 1 μg/mL goat anti-FLAG antibody (#F3165, Sigma-Aldrich) in 50 μL/well borate buffer (0.1 M boric acid, 0.1 M Na borate, pH 8.7). […] OD450 was then measured.

[5] = inhibition of ephrin-A5 AP binding to EphA4 Fc, averages of all experiments, read-out: IC50 ± SE (n) by ELISA
[6] = in vivo, iv, IV (intravenous administration), read-out: In vivo half-life (converted)
[7] = ELISA inhibition of EphA4-ephrin-A5 interaction
[8] = ELISA inhibition of EphA4-ephrin-A5 interaction, read-out: IC50 (approximate)
[9] = in vivo, ip, IP (intraperitoneal administration), read-out: In vivo half-life (converted)

| Compound | IC50 (EphA4 Fc [1]; [5]) | half-life [2, 6] | IC50 (EphA4 Fc [3]; 40 mg/mL delipidated HSA) | half-life [2, 9] | potency compared with APY-d3 (EphA4 Fc [1]; [7]) | IC50 (EphA4 Fc [1]; [8]) | effect of HSA on potency (EphA4 Fc [3]) | also measured |
| --- | --- | --- | --- | --- | --- | --- | --- | --- |
| CCCCCCCCCCCC(=O)N[C@@H](CCC(=O)N[C@@H](CCC(=O)NCCCC[C@H](NC(=O)CNC(=O)CNC(=O)[C@@H]1CSSC[C@H](NC(=O)[C@H](Cc2ccc(O)cc2)NC(=O)[C@@H]2CCCN2C(=O)CCN)C(=O)N[C@@H](C(C)C)C(=O)N[C@@H](Cc2ccc(O)cc2)C(=O)N[C@@H](CCCNC(=N)N)C(=O)NCCC(=O)N[C@@H](CO)C(=O)N[C@@H](Cc2c[nH]c3ccccc23)C(=O)N[C@@H](CO)C(=O)N1)C(=O)NCC(N)=O)C(=O)O)C(=O)O [Compound 15] |  |  |  | 30 to 60 min | comparable to APY-d3 | ~50 nM and ~30 nM | dramatically decreased | half-life ([2]; in vivo, read-out: t1/2 in mouse circulation): ~40 min; solubility [4]: acceptable solubility |
| [Cyc (4,12)] H2N-(βA)PYCVYR(βA)SWSC(Ahx)(Ahx)(Ahx)(Pra/mPEG30-triazole)-OH (XPYCVYRXSWSCXXX; non-natural residues; cyclised or stapled) [APY-d3-PEG4] |  |  |  |  |  |  |  | t1/2 in mouse circulation ([2]; in vivo): ~660 min; blood concentration ([2]; in vivo, ip): ~9000 nM; blood concentration ([2]; in vivo, ip, 20 h): ~3000 nM; blood concentration ([2]; in vivo, ip, 48 h): ~400 nM; inhibitory potency lower than that of APY-d3 (EphA4): 2-3 fold |

Continued, in another order:

| IC50 (EphA4 Fc [1]; [5]) | half-life [2, 6] | IC50 (EphA4 Fc [3]; 40 mg/mL delipidated HSA) | half-life [2, 9] | Compound | potency compared with APY-d3 (EphA4 Fc [1]; [7]) | IC50 (EphA4 Fc [1]; [8]) | effect of HSA on potency (EphA4 Fc [3]) | also measured |
| --- | --- | --- | --- | --- | --- | --- | --- | --- |
| 26 ± 5 nM | < 10 min | 75 ± 24 nM |  | CCCCCCCC(=O)NCCCC[C@@H]1NC(=O)[C@H](Cc2ccc(O)cc2)NC(=O)[C@H](C(C)C)NC(=O)[C@@H](NC(=O)[C@H](Cc2ccc(O)cc2)NC(=O)[C@@H]2CCCN2C(=O)CCN)CSSC[C@@H](C(=O)NCC(=O)NCC(=O)N[C@@H](CCCNC(=N)N)C(=O)NCC(N)=O)NC(=O)[C@H](CO)NC(=O)[C@H](Cc2c[nH]c3ccccc23)NC(=O)[C@H](CO)NC(=O)CCNC1=O [Compound 5] (H-[βAla]PYCVYK(Octanoyl)[βAla]SWSCGGRG-NH2; disulfide 4-12) |  |  |  | % of compound remaining in the blood ([2]; 10 min after intravenous injection, in PBS with 5% DMSO): 5% |
| 240 ± 30 nM | 30 to 42 min | 920 ± 180 nM |  | CCCCCCCCCCCC(=O)NCCCC[C@H](NC(=O)CNC(=O)CNC(=O)[C@@H]1CSSC[C@H](NC(=O)[C@H](Cc2ccc(O)cc2)NC(=O)[C@@H]2CCCN2C(=O)CCN)C(=O)N[C@@H](C(C)C)C(=O)N[C@@H](Cc2ccc(O)cc2)C(=O)N[C@@H](CCCNC(=N)N)C(=O)NCCC(=O)N[C@@H](CO)C(=O)N[C@@H](Cc2c[nH]c3ccccc23)C(=O)N[C@@H](CO)C(=O)N1)C(=O)NCC(N)=O [Compound 12] |  |  |  | In vivo half-life ([2]; IV (intravenous administration)): ~30 min |
| 77 ± 9 nM |  | 1370 nM | ~120 min | CCCCCCCCCCCCCC(=O)N[C@@H](CCC(=O)N[C@@H](CCC(=O)NCCCC[C@H](NC(=O)CNC(=O)CNC(=O)[C@@H]1CSSC[C@H](NC(=O)[C@H](Cc2ccc(O)cc2)NC(=O)[C@@H]2CCCN2C(=O)CCN)C(=O)N[C@@H](C(C)C)C(=O)N[C@@H](Cc2ccc(O)cc2)C(=O)N[C@@H](CCCNC(=N)N)C(=O)NCCC(=O)N[C@@H](CO)C(=O)N[C@@H](Cc2c[nH]c3ccccc23)C(=O)N[C@@H](CO)C(=O)N1)C(=O)NCC(N)=O)C(=O)O)C(=O)O [Compound 16] |  | ~80 nM | dramatically decreased | decrease in potency compared to compound 15 (EphA4 Fc [1]; C14 myristoyl vs C12 lipid, γGluγGlu spacer): 2-3 fold; effect of methyl-β-cyclodextrin on inhibitory potency (EphA4 Fc [3]; 6.5 mM methyl-β-cyclodextrin vs buffer): does not affect the inhibitory potency |
| 18 ± 4 nM |  |  | ~40 min | CC[C@H](C)[C@H](NC(=O)[C@H](CC(C)C)NC(=O)[C@H](CCCNC(=N)N)NC(=O)[C@@H]1CSSC[C@H](NC(=O)[C@H](Cc2ccc(O)cc2)NC(=O)[C@@H]2CCCN2C(=O)CCN)C(=O)N[C@@H](C(C)C)C(=O)N[C@@H](Cc2ccc(O)cc2)C(=O)N[C@@H](CCCNC(=N)N)C(=O)NCCC(=O)N[C@@H](CO)C(=O)N[C@@H](Cc2c[nH]c3ccccc23)C(=O)N[C@@H](CO)C(=O)N1)C(=O)N[C@@H](CCC(=O)O)C(=O)N[C@@H](CC(=O)O)C(=O)N[C@H](C(=O)N[C@H]1CSSC[C@@H](C(=O)N[C@@H](CC(C)C)C(=O)N[C@@H](Cc2c[nH]c3ccccc23)C(=O)N[C@@H](CCC(=O)O)C(=O)N[C@@H](CC(=O)O)C(=O)N[C@@H](CC(=O)O)C(N)=O)NC(=O)CNC(=O)[C@H](Cc2c[nH]c3ccccc23)NC(=O)[C@H](CCCNC(=N)N)NC(=O)[C@@H]2CCCN2C(=O)[C@H](CC(C)C)NC1=O)[C@@H](C)CC [Compound 21] (H-[βAla]PYCVYR[βAla]SWSCRLIEDICLPRWGCLWEDD-NH2; disulfide 4-12, 19-25) | as potent as APY-d3 |  |  | decrease in potency in the presence of bovine serum albumin (EphA4 Fc [3]; 20 mg/mL bovine serum albumin): ~8 fold; IC50 (EphA4 Fc [3]; 20 mg/ml BSA): 130 ± 10 nM |
